Assays:
[1] = target: PIM2 (Homo sapiens (Human), UniProt Q9P1W9); assay: Pim kinase binding activity, Caliper LC3000 microfluidic peptide phosphorylation assay (Example 901); type: biochemical; details: 50 pM PIM2, 1 μM FAM-peptide, 10 μM ATP, 90 minutes at room temperature; read-out: PIM2 LC3K (KI)
Experimental: (§1) A fluorescent-labeled Pim-specific peptide substrate, was custom synthesized by American Peptide Company (Sunnyvale, Calif.). Reaction Buffer contained 10 mM HEPES, pH 7.2, 10 mM MgCl2, 0.01% Tween 20, 2 mM DTT. Termination Buffer contained 190 mM HEPES, pH 7.2, 0.015% Brij-35, 0.2% Coating Reagent 3 (Caliper Life Sciences, Hopkinton, Mass.), 20 mM EDTA. Separation Buffer contained 100 mM HEPES, pH 7.2, 0.015% Brij-35, 0.1% Coating Reagent 3, 1:200 Coating Reagent 8 (Caliper Life Sciences, Hopkinton, Mass.), 10 mM EDTA and 5% DMSO.
PIM reactions were carried out in a final volume of 10 μL per well in a 384-well plate. […] After 90 minutes of incubation at room temperature, the phosphorylation reaction was stopped by the addition of 10 μL Termination Buffer. The product and substrate in each independent reaction were separated on a 12-sipper microfluidic chip (Caliper Life Sciences, Hopkinton, Mass.) run on a Caliper LC3000® (Caliper Life Sciences, Hopkinton, Mass.). The separation of product and substrate was optimized by choosing voltages and pressure using Caliper's Optimizer software (Hopkinton, Mass.). The separation conditions used a downstream voltage of −500V, an upstream voltage of −2150V, and a screening pressure of −1.2 psi. […] Substrate conversion was calculated from the electropherogram using HTS Well Analyzer software (Caliper Life Sciences, Hopkinton, Mass.). Ki values for the test compound were calculated.

[2] = target: PIM1 (Homo sapiens (Human), UniProt P11309); assay: as above; type: biochemical; details: 20 pM PIM1, 1 μM FAM-peptide, 10 μM ATP, 90 minutes at room temperature; read-out: PIM1 LC3K (KI)
Experimental: as §1, with “PIM-1, -2, and -3 enzymes were generated as fusion proteins expressed in bacteria and purified by IMAC column chromatography (Sun, X., Chiu, J. F., and He, Q. Y. (2005) Expert Rev. Proteomics, 2:649-657). A fluorescent-labeled” for “A fluorescent-labeled”
(§2) PIM reactions were carried out in a final volume of 10 μL per well in a 384-well plate. A standard enzymatic reaction, initiated by the addition of 5 μL 2×ATP and test compound to 5 μL of 2× enzyme and FAM-peptide, contained 20 pM PIM1, 50 pM PIM2, or 55 pM PIM3, 1 μM FAM-peptide, and 10 μM ATP, in Reaction Buffer. After 90 minutes of incubation at room temperature, the phosphorylation reaction was stopped by the addition of 10 μL Termination Buffer. The product and substrate in each independent reaction were separated on a 12-sipper microfluidic chip (Caliper Life Sciences, Hopkinton, Mass.) run on a Caliper LC3000® (Caliper Life Sciences, Hopkinton, Mass.). The separation of product and substrate was optimized by choosing voltages and pressure using Caliper's Optimizer software (Hopkinton, Mass.). The separation conditions used a downstream voltage of −500V, an upstream voltage of −2150V, and a screening pressure of −1.2 psi. The product and substrate fluorophore were excited at 488 nm and detected at 530 nm. Substrate conversion was calculated from the electropherogram using HTS Well Analyzer software (Caliper Life Sciences, Hopkinton, Mass.). Ki values for the test compound were calculated.

[3] = target: PIM3 (Homo sapiens (Human), UniProt Q86V86); assay: as above; type: biochemical; details: 55 pM PIM3, 1 μM FAM-peptide, 10 μM ATP, 90 minutes at room temperature; read-out: PIM3 LC3K (KI)
Experimental: as §1, with “PIM-1, -2, and -3 enzymes were generated as fusion proteins expressed in bacteria and purified by IMAC column chromatography (Sun, X., Chiu, J. F., and He, Q. Y. (2005) Expert Rev. Proteomics, 2:649-657). A fluorescent-labeled” for “A fluorescent-labeled”
as §2

[4] = system: BaF3 parental cells; assay: In vitro cell proliferation potency assay, Cell Titer Glo (Example 902); type: cell-based, murine; details: Mus musculus; BaF3 parental line, medium with 2 ng/mL mIL-3, incubated overnight; read-out: Prolif BaF3 IL3 (IC50)
Experimental: (§3) BaF3 parental line was obtained from the DSMZ repository. BaF3 lines transfected with PIM 1 or PIM2 were generated. Mouse IL-3 was purchased from R&D Systems. G418 was purchased from Clontech. Media for BaF3 parental line contained RPMI, 10% FBS, 2 mM L-Glutamine, 2 ng/mL mIL-3. Media for BaF3 PIM1 & 2 lines contained RPMI, 10% FBS, 2 mM L-Glutamine, […]. Media for MM1.S (multiple myeloma cells) line contained RPMI, 10% FBS, 2 mM L-Glutamine.
(§4) BaF3, a murine interleukin-3 dependent pro-B cell line, parental cells, BaF3 PIM1 cells, BaF3 PIM2 cells, and MM1.S (multiple myeloma) cells were seeded at 2 k/well, 5 k/well, 5 k/well, and 10 k/well respectively, in a 384-well plate, at 45 μL/well. Test compound was added at 5 μL/well. BaF3 cells (parental and transfected) were incubated overnight, while MM1.S cells were incubated for 72 hours at 37° C., 5% CO2. Cell Titer Glo Reagent (Promega) was added at 50 μL/well, the plates were incubated for 30 minutes, and their luminescence read on an HT Analyst. IC50/EC50 values for the test compound were calculated.

[5] = system: BaF3 PIM1 cells; assay: as above; type: cell-based, murine; details: Mus musculus; BaF3 line transfected with PIM1, incubated overnight; read-out: Prolif BaF3 PIM1 (IC50)
Experimental: as §3, §4

[6] = system: MM1.S (multiple myeloma) cells; assay: as above; type: cell-based; details: Homo sapiens, incubated for 72 hours, read-out: Prolif MM1S ATP (EC50)
Experimental: as §3, §4

Sequence of PIM1 (P11309 whole entry, the tested form may be a part): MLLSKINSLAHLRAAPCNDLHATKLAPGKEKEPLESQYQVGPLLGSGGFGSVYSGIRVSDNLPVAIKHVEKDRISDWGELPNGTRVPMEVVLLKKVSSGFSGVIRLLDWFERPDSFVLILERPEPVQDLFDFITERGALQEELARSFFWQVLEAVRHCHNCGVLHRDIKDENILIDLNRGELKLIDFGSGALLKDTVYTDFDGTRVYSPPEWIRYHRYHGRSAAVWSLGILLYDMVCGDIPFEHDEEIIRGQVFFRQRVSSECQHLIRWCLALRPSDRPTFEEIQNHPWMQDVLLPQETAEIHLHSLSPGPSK
Sequence of PIM2 (Q9P1W9 whole entry): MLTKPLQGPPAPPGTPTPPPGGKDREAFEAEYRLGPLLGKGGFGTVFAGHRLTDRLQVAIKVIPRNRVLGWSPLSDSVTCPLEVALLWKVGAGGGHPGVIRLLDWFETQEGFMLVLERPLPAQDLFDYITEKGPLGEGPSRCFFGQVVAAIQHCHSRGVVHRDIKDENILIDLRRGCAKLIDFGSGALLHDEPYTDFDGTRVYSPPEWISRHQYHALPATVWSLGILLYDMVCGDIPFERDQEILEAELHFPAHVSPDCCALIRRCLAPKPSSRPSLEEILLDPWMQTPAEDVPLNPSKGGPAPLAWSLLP

SMILES | Ki [1] [µM] | Ki [2] [µM] | Ki [3] [µM] | IC50 [4] [µM] | IC50 [5] [µM] | EC50 [6] [µM]
Nc1sc(-c2c(F)cccc2F)nc1C(=O)Nc1cn[nH]c1N1CCC[C@H](N)C1 [Example 103, (S)-5-amino-N-(5-(3-aminopiperidin-1-yl)-1H-pyrazol-4-yl)-2-(2,6-difluorophenyl)thiazole-4-carboxamide] | 0.0551 | 0.0065 | 0.00489 | 10.6 | 7.3 | 9.1
Cn1ncc(NC(=O)c2nc(-c3c(F)cccc3F)sc2N)c1N1CCC[C@H](N)C1 [Example 106, (S)-5-amino-N-(5-(3-aminopiperidin-1-yl)-1-methyl-1H-pyrazol-4-yl)-2-(2,6-difluorophenyl)thiazole-4-carboxamide] | – | – | – | 6.6 | 3.8 | 4.2
Cn1ncc(NC(=O)c2nc(-c3c(F)cccc3F)sc2N)c1N1CCC(N)CC1 [Example 108, 5-amino-N-(5-(4-aminopiperidin-1-yl)-1-methyl-1H-pyrazol-4-yl)-2-(2,6-difluorophenyl)thiazole-4-carboxamide] | – | – | – | 4.3 | 0.615 | 8.2
Cn1ncc(NC(=O)c2nc(-c3ccccc3F)ccc2N)c1N1CCC(N)CC1 [Example 110, 3-amino-N-(5-(4-aminopiperidin-1-yl)-1-methyl-1H-pyrazol-4-yl)-6-(2-fluorophenyl)picolinamide] | – | – | – | 12 | 1.5 | 16.1
Cn1ncc(NC(=O)c2nc(-c3ccccc3F)ccc2N)c1N1CCC[C@H](N)C1 [Example 111, (S)-3-amino-N-(5-(3-aminopiperidin-1-yl)-1-methyl-1H-pyrazol-4-yl)-6-(2-fluorophenyl)picolinamide] | – | – | – | 13.2 | 4.2 | 7.1
Cn1ncc(NC(=O)c2nc(-c3ccccc3F)ccc2N)c1N1CCCC(N)CC1 (stereo not drawn) [Example 114, 3-amino-N-(5-(4-aminoazepan-1-yl)-1-methyl-1H-pyrazol-4-yl)-6-(2-fluorophenyl)picolinamide] | 0.00165 | 0.000115 | 0.000159 | 5.5 | 2.3 | –
Cn1ncc(NC(=O)c2nc(-c3c(F)cccc3F)sc2N)c1OCC1CCNCC1 [Example 115, 5-amino-2-(2,6-difluorophenyl)-N-(1-methyl-5-(piperidin-4-ylmethoxy)-1H-pyrazol-4-yl)thiazole-4-carboxamide] | 0.0461 | 0.00114 | 0.00108 | 6.2 | 4.5 | –
Cn1ncc(NC(=O)c2nc(-c3ccccc3F)cnc2N)c1N1CCC[C@H](N)C1 [Example 119, (S)-3-amino-N-(5-(3-aminopiperidin-1-yl)-1-methyl-1H-pyrazol-4-yl)-6-(2-fluorophenyl)pyrazine-2-carboxamide] | 0.00213 | – | 0.000305 | 5.2 | 1.3 | –
Cn1ncc(NC(=O)c2nc(-c3c(F)cccc3F)sc2N)c1OC1CCNCC1 [Example 120, 5-amino-2-(2,6-difluorophenyl)-N-(1-methyl-5-(piperidin-4-yloxy)-1H-pyrazol-4-yl)thiazole-4-carboxamide] | – | 0.00197 | 0.0011 | 25 | 7.8 | –
Cn1ncc(NC(=O)c2nc(-c3ccccc3F)cnc2N)c1N1CCC(N)CC1 [Example 122, 3-amino-N-(5-(4-aminopiperidin-1-yl)-1-methyl-1H-pyrazol-4-yl)-6-(2-fluorophenyl)pyrazine-2-carboxamide] | 0.0147 | 0.000281 | 0.000962 | 11.9 | 1.1 | –
Cn1ncc(NC(=O)c2nc(-c3ccccc3F)ccc2N)c1N1CCC[C@H](CN)C1 [Example 129, (R)-3-amino-N-(5-(3-(aminomethyl)piperidin-1-yl)-1-methyl-1H-pyrazol-4-yl)-6-(2-fluorophenyl)picolinamide] | 0.0102 | 0.000343 | 0.00133 | 21.5 | 5.1 | –
Cn1ncc(NC(=O)c2nc(-c3ccccc3F)ccc2N)c1N1CC[C@@H](CN)C1 [Example 134, (S)-3-amino-N-(5-(3-(aminomethyl)pyrrolidin-1-yl)-1-methyl-1H-pyrazol-4-yl)-6-(2-fluorophenyl)picolinamide] | – | – | – | 7.8 | 1.4 | –
Cn1ncc(NC(=O)c2nc(-c3c(F)cccc3F)sc2N)c1N1CC[C@H](CN)C1 [Example 135, (R)-5-amino-N-(5-(3-(aminomethyl)pyrrolidin-1-yl)-1-methyl-1H-pyrazol-4-yl)-2-(2,6-difluorophenyl)thiazole-4-carboxamide] | 0.0106 | 0.000506 | 0.000344 | 9.3 | 0.66 | –
Cn1ncc(NC(=O)c2nc(-c3ccccc3F)ccc2N)c1N1CC[C@H](CN)C1 [Example 136, (R)-3-amino-N-(5-(3-(aminomethyl)pyrrolidin-1-yl)-1-methyl-1H-pyrazol-4-yl)-6-(2-fluorophenyl)picolinamide] | – | – | – | 5.9 | 0.634 | –
Cn1ncc(NC(=O)c2nc(-c3ccccc3F)cnc2N)c1N1CCC[C@@H](N)CC1 [Example 141, (R)-3-amino-N-(5-(4-aminoazepan-1-yl)-1-methyl-1H-pyrazol-4-yl)-6-(2-fluorophenyl)pyrazine-2-carboxamide] | 0.00352 | – | 0.000295 | 1.1 | 0.219 | –
Cn1ncc(NC(=O)c2nc(-c3ccccc3F)cnc2N)c1N1CCC[C@H](N)CC1 [Example 143, (S)-3-amino-N-(5-(4-aminoazepan-1-yl)-1-methyl-1H-pyrazol-4-yl)-6-(2-fluorophenyl)pyrazine-2-carboxamide] | – | – | – | 1.1 | 0.377 | –
Cn1ncc(NC(=O)c2nc(-c3ccccc3F)ccc2N)c1N1CCC[C@@H](N)CC1 [Example 145, (R)-3-amino-N-(5-(4-aminoazepan-1-yl)-1-methyl-1H-pyrazol-4-yl)-6-(2-fluorophenyl)picolinamide] | – | – | – | 3.8 | 1 | –
